{
  "source": "patent US20200069650A1",
  "about": "“DEXMEDETOMIDINE OR MEDETOMIDINE FOR USE IN TREATING SEPARATION ANXIETY IN DOGS” (Orion Corporation, priority 2016, published 2020)",
  "test_system": "separation anxiety in dogs",
  "conditions": "Example 6: mixed breed dog, behavioural modification supported by fluoxetine",
  "experimental": "Oromucosal dexmedetomidine gel was then administered to buccal/gingival mucosa of the dog with a syringe using a dose of 125 μg/m^2 of dexmedetomidine hydrochloride about 15 minutes prior to unscheduled departures such as shopping and visiting friends.",
  "data": [
    {"smiles": "CNCCC(Oc1ccc(C(F)(F)F)cc1)c1ccccc1", "note": "(centres unmarked) [fluoxetine]", "values": [
      {"measurement": "effect of conventional therapy on regular daily work departures", "value": "enabled trouble free leaving dog at home during regular daily work departures"},
      {"measurement": "signs of separation anxiety at unscheduled departures under conventional therapy", "setting": "before gel", "value": "still showed signs of sepration anxiety to unscheduled departures"}
    ]}
  ]
}
